Read-outs that look alike come from different tables or passages of the source.
Tested on: human sperm motility
Assay: Computer-assisted sperm analysis (CASA) of human sperm motility
Format: cell-based
Protocol: In another embodiment, a computer-assisted sperm analysis (CASA) can be used as a live cell compound screen for determining the effect of compounds on human sperm motility. Additionally, to facilitate the IC50 evaluation of compounds using different ejaculates, reducing inter-assay variation due to differences in sperm quality in different semen samples, an index of relative motility inhibition (RMI) was developed.
This is calculated as: RMI=[% motility*VSL]; percentage of motile sperm (% motility) or the percentage of progressively motile sperm (% progressive motility, RPMI) multiplied by the straight-line velocity (VSL); the average velocity measured in a straight line from the beginning to the end of a track in μm/sec.
Normalized RMI can be calculated by dividing the RMI of each experimental condition by its respective DMSO control.
Computer-assisted sperm analysis (CASA) was used as a live cell compound screen for determining the effect of compounds on human sperm motility. Computer-assisted sperm analysis (CASA) was performed using the approach taught in Mitra et al., Biology of Reproduction, Vol. 82, p 491 (2010), to determine the parameters of the control versus compound-treated spermatozoa. The parameters measured are: average pathway velocity (VAP: the average velocity of the smoothed cell path in 1 m/sec), the straight-line velocity (VSL: the average velocity measured in a straight line from the beginning to the end of track in 1 m/sec), the curvilinear velocity (VCL: the average velocity measured over the actual point-to-point track of the cell in 1 m/sec), the lateral head amplitude (ALH: amplitude of lateral head displacement in 1 m), the beat cross-frequency (BCF: frequency of sperm head crossing the sperm average path in Hz), the straightness (STR: the average value of the ratio VSL/VAP in %), and the linearity (LIN: the average value of the ratio VSL/VCL in %). The sperm motility parameters are assessed in pre-warmed (37° C.) two- or four-chambered 20-mm Leja slides, loading 5 μL or 2 μL, respectively, of the samples in each chamber and immediately using CASA. This computerized measuring device included a phase-contrast microscope (Olympus CX41), a camera, a mini-therm stage warmer, an image digitizer, and a computer to store and analyze data. The software used for data analysis is the HTR Ceros 12.3 (Hamilton-Thorne Biosciences). A range of 13 to 20 fields are scanned from each chamber. Progressive cells had to have a minimum of 25 μm/sec VAP and 80% of STR.
To facilitate the IC50 evaluation of compounds using different ejaculates, reducing inter-assay variation due to differences in sperm quality in different semen samples, an index of relative motility inhibition (RMI) was developed. This is calculated as: RMI=[% motility*VSL]; percentage of motile sperm (% motility) or the percentage of progressively motile sperm (% progressive motility, RPMI) multiplied by the straight-line velocity (VSL); the average velocity measured in a straight line from the beginning to the end of a sperm track in μm/sec. Normalized RMI (RPMI) was calculated by dividing the RMI of each experimental condition by its respective DMSO control.
The analysis of sperm motility was carried out with computer-assisted sperm analysis (CASA) (Ceros version 12.3 software; Hamilton-Thorne), using the techniques taught in Mitra et al., Biology of Reproduction, Vol. 82, p 491 (2010).

`COC(=O)NNc1nc(Nc2ccc(NC(=O)OC)c(O)c2)nc(SCC(C)=O)n1` [EP012] showed an IC50 (Homo sapiens, Sperm, FIG. 10, RMI using % progressive motility, read-out: IC50 in terms of progressive motility) of roughly 3.4 µM.

Work on `CCOC(=O)CSc1nc(=O)c(NCC(=O)OC)n[nH]1` [Compound B4, methyl N-{3-[(2-ethoxy-2-oxoethyl)sulfanyl]-5-oxo-2,5-dihydro-1,2,4-triazin-6-yl}glycinate] yielded an IC50 (Homo sapiens, Sperm, read-out: CASA) of 11.4 µM.

B1: SEMG1: semenogelin protein that binds EPPIN and inhibits progressive motility of ejaculate spermatozoa (protein, UniProt P04279 24-462, looked up)
Semenogelin-1: QKGGSKGRLPSEFSQFPHGQKGQHYSGQKGKQQTESKGSFSIQYTYHVDANDHDQSRKSQQYDLNALHKTTKSQRHLGGSQQLLHNKQEGRDHDKSKGHFHRVVIHHKGGKAHRGTQNPSQDQGNSPSGKGISSQYSNTEERLWVHGLSKEQTSVSGAQKGRKQGGSQSSYVLQTEELVANKQQRETKNSHQNKGHYQNVVEVREEHSSKVQTSLCPAHQDKLQHGSKDIFSTQDELLVYNKNQHQTKNLNQDQQHGRKANKISYQSSSTEERRLHYGENGVQKDVSQSSIYSQTEEKAQGKSQKQITIPSQEQEHSQKANKISYQSSSTEERRLHYGENGVQKDVSQRSIYSQTEKLVAGKSQIQAPNPKQEPWHGENAKGESGQSTNREQDLLSHEQKGRHQHGSHGGLDIVIIEQEDDSDRHLAQHLNNDRNPLFT
B1 was tested, and the IC50 (FIGS. 3 and 4, read-out: IC50, CASA, RMI (relative motility)) was roughly 9 µM and the EC50 (calculated EC50 value, read-out: EC50 for inhibiting sperm motility) was 8.8 µM.

Source: patent publication US10472334B2, “Small molecules for inhibiting male fertility” (The University of North Carolina at Chapel Hill, priority 2014, dated 2019)
